Read-outs that look alike come from different tables or passages of the source.
Key:
HeLa cells [1] = test: Cell survival inhibition assay, HeLa; format: cell-based; settings: HeLa (HPV-18), 24 hours, 10-100 μM
Protocol: (§1) In this sense, a cell survival inhibition assay of different cell lines was carried out when exposed for hours 24 to one of the two drugs from FIG. 1. In this experiment, four cell lines were tested: HeLa, which are cell lines representative of cancer and HPV-18 infection, SiHa which are cells representative of cervical cancer with HPV-16 infection, C-33A which are cells representative of HPV-negative cervical carcinoma, and HaCaT, which are cancer and infection negative cells. The experiment consisted of exposing cells of the different cell lines to different concentrations of both drugs for 24 hours (10-100 μM) going in steps of 10 μM each.

C-33A cells = test: Cell survival inhibition assay, C-33A; format: cell-based; settings: C-33A (HPV-negative cervical carcinoma), 24 hours, 10-100 μM
Protocol: as §1

HeLa cells [2] = test: Alkaline comet assay (single cell electrophoresis), HeLa; format: cell-based; settings: HeLa cancer cells
Protocol: (§2) This difference in drug performance can be explained by the difference in their mechanisms of action. […] The comet assay is an experiment that allows to see if the drug has a cytotoxic effect related to DNA fragmentation of the cells. This difference is visualized by the size of the “tails” of the “comets”, which is the fragmented DNA from the cells under study.
(§3) An analysis with a Wilcoxon test was performed to verify whether the means in the percentage of DNA in the comet tails of the different cell lines differ.
(§4) FIG. 2 depicts representative tail-DNA percentage data. (A) Microphotographs of the alkaline comet assay showing representative images of the CC cell lines and their negative control with their 18β and GA treatments of HeLa (HPV 18 cervical cancer) and HaCaT (HPV negative immortalized keratinocyte) (B) Comet assay data plot of Tail-DNA percentage **P<0.43 for HaCaT and P<2^−16. Larger comets for 18β treatment are observed.

SiHa cells = test: Cell survival inhibition assay, SiHa; format: cell-based; settings: SiHa (HPV-16), 24 hours, 10-100 μM
Protocol: as §1

[3] = cited from earlier work
HaCaT cells = test: Alkaline comet assay (single cell electrophoresis), HaCaT; format: cell-based
Protocol: as §2, §3, §4

Rotavirus = settings: infected cultures; cited from earlier work
[4] = cited from earlier work; remark: listed apart in the source
Hepatitis C virus (HCV) = settings: by preventing the release of infectious viral particles; cited from earlier work

SMILES	inhibition of cell survival (HeLa cells [1])	inhibition of cell survival (C-33A cells)	DNA fragmentation (comet tails) (HeLa cells [2])	inhibition of cell survival (SiHa cells)	log P [3]	DNA fragmentation (comet tails) (HaCaT cells)	interference with Rotavirus replication (Rotavirus)	solubility in water [4]	reduction of Hepatitis C virus (HCV) titers (Hepatitis C virus (HCV)) [%]	DNA fragmentation (comet tails) (HaCaT cells; HaCaT healthy cells)
CC1(C)[C@@H](O)CC[C@]2(C)[C@H]3C(=O)C=C4[C@@H]5C[C@@](C)(C(=O)O)CC[C@]5(C)CC[C@@]4(C)[C@]3(C)CC[C@@H]12 [Example 18β-GA, 18β-glycyrrhetinic acid]	greater effect than GA	greater effect than GA	considerable DNA fragmentation	greater effect than GA	6.574	much less fragmentation	up to 99%	insoluble in water		
CC1(C)[C@@H](O[C@H]2O[C@H](C(=O)O)[C@@H](O)[C@H](O)[C@H]2O[C@@H]2O[C@H](C(=O)O)[C@@H](O)[C@H](O)[C@H]2O)CC[C@]2(C)[C@H]3C(=O)C=C4[C@@H]5C[C@@](C)(C(=O)O)CC[C@]5(C)CC[C@@]4(C)[C@]3(C)CC[C@@H]12 [GA, Glycyrrhizic acid]	minor effect	minor effect	do not present this fragmentation	no effect					50	do not present this fragmentation

Reference: patent US12527757B2, “Nanoemulsion of 18BETA-glycyrrhetinic acid” (ATSO CORPORATE AFFAIRS, S.A. DE C.V., priority 2019, dated 2026)
